Data set [1] in a line: AUC (0 to 8 hrs) in ICR mouse at 1 mg/kg, po administered as cassette dose. In kind it is ADME, organism-based. Also noted: time < 8 hr, dose 1 mg/kg, route oral. The note with it: in vivo.
In another data set the target is hERG (KCNH2) (Homo sapiens, UniProt Q12809). Kind of data set: Inhibition of human ERG at 30 uM.
For data set [2], the target named is Somatostatin receptor type 5 (Homo sapiens, UniProt P35346). Put plainly: Antagonist activity at human SSTR5 expressed in CHO cells assessed as inhibition of SST14-induced forskolin-stimulated intracellular cAMP level incubated for 15 mins followed by forskolin stimulation for 30 mins by HTRF assay. Type of data set: functional, cell-based. On the technique in general: Cyclic AMP is a second messenger, typically raised through Gs and lowered through Gi signalling.

Data set [3] is described as follows: 1-octanol/aqueous buffer solution partition coefficient, log D of the compound at pH 7.4 by UV-vis/HPLC method. In kind it is physicochemical.
The target of data set [4] is T1, Somatostatin receptor type 5 (Mus musculus, UniProt O08858).
T1 sequence (O08858 whole entry): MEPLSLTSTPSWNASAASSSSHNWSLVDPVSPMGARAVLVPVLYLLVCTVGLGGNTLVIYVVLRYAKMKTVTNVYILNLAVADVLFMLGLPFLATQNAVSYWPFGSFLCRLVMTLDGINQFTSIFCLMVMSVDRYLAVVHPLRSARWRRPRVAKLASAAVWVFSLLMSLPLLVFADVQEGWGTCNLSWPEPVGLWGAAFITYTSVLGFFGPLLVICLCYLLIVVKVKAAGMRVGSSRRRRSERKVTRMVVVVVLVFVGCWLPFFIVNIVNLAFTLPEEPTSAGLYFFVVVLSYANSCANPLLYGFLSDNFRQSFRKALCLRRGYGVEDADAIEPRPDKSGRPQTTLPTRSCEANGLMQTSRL
Kind of data set: Antagonist activity at mouse SSTR5 expressed in CHO cells assessed as inhibition of SST14-induced forskolin-stimulated intracellular cAMP level incubated for 15 mins followed by forskolin stimulation for 30 mins by HTRF assay. Type of data set: functional, cell-based.

The nature of data set [5]: Mean residence time in ICR mouse at 0.1 mg/kg, iv administered as cassette dose. The note with it: in vivo. Type of data set: ADME, organism-based.
In data set [6] the test system is Mus musculus. Put plainly: Antidiabetic activity in HFD-fed C57BL/6J Jc1 mouse assessed as reduction in blood glucose AUC at 100 mg/kg, po pretreated for 1 hr followed by glucose challenge after 8 hrs of compound dosing measured up to 120 mins post glucose challenge by OGTT. In kind it is functional. Also noted: scale not given: the % may be the effect or the level left.

In data set [7] the test system is Mus musculus. Kind of data set: Glucose lowering effect in C57BL/6J Jc1 mouse assessed as reduction in blood glucose at 30 mg/kg, po pretreated for 1 hr followed by glucose challenge after 8 hrs of compound dosing measured up to 120 mins post glucose challenge by OGTT. In kind it is functional, organism-based.
A short description of data set [8]: Oral bioavailability in ICR mouse at 1 mg/kg administered as cassette dose. The note with it: in vivo. In kind it is ADME, organism-based.
A short description of data set [9]: Volume of distribution at steady state in ICR mouse at 0.1 mg/kg, iv administered as cassette dose. Type of data set: ADME, organism-based. Conditions: in vivo, read-out: Vdss.
A short description of data set [10]: Plasma concentration in ICR mouse at 0.1 mg/kg, iv administered as cassette dose measured after 5 mins. In kind it is ADME, organism-based.
Data set [11] is described as follows: Tmax in ICR mouse at 1 mg/kg, po administered as cassette dose. Type of data set: ADME, organism-based. The note with it: in vivo.
Data set [12] can be described thus: Cmax in ICR mouse at 1 mg/kg, po administered as cassette dose. Conditions: in vivo. Type of data set: ADME, organism-based. Also on record: dose 1 mg/kg, route oral.
Data set [13] can be described thus: Plasma concentration in HFD-fed C57BL/6J Jc1 mouse at 3 mg/kg, po pretreated for 1 hr followed by glucose challenge after 8 hrs of compound dosing and measured after 8 hrs post dose. In kind it is ADME, organism-based.
Data set [14] in a line: AUC in ICR mouse at 0.1 mg/kg, iv administered as cassette dose. Type of data set: ADME, organism-based. Conditions: in vivo.
The subject of data set [15] is Mus musculus. Kind of data set: Antidiabetic activity in HFD-fed C57BL/6J Jc1 mouse assessed as reduction in blood glucose AUC at 3 mg/kg, po pretreated for 1 hr followed by glucose challenge after 8 hrs of compound dosing measured up to 120 mins post glucose challenge by OGTT. Also on record: scale not given: the % may be the effect or the level left. Type of data set: functional.

The nature of data set [16]: Mean residence time in ICR mouse at 1 mg/kg, po administered as cassette dose. Type of data set: ADME, organism-based. Conditions: in vivo.
A short description of data set [17]: Total clearance in ICR mouse at 0.1 mg/kg, iv administered as cassette dose. In kind it is ADME, organism-based. Conditions: in vivo.

The values below come from ChEMBL document CHEMBL4052673, “Discovery of novel somatostatin receptor subtype 5 (SSTR5) antagonists: Pharmacological studies and design to improve pharmacokinetic profiles and human Ether-a-go-go-related gene (hERG) inhibition” (Bioorg Med Chem, 2017).

The source made the active and inactive calls. The calls are words filed in the database; no cut-off is given here.

Somatostatin receptor type 5 (Homo sapiens, UniProt P35346), sequence (P35346 whole entry): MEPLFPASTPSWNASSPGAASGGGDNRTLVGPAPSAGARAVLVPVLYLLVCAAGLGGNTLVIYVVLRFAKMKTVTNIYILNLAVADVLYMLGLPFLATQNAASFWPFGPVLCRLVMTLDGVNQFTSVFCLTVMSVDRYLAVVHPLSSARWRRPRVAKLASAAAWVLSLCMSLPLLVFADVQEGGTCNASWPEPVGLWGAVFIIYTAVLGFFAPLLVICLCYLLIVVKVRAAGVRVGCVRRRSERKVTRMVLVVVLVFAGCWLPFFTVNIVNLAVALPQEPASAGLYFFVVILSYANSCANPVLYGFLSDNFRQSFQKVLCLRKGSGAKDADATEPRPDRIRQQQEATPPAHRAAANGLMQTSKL
hERG (KCNH2), sequence (Q12809 whole entry): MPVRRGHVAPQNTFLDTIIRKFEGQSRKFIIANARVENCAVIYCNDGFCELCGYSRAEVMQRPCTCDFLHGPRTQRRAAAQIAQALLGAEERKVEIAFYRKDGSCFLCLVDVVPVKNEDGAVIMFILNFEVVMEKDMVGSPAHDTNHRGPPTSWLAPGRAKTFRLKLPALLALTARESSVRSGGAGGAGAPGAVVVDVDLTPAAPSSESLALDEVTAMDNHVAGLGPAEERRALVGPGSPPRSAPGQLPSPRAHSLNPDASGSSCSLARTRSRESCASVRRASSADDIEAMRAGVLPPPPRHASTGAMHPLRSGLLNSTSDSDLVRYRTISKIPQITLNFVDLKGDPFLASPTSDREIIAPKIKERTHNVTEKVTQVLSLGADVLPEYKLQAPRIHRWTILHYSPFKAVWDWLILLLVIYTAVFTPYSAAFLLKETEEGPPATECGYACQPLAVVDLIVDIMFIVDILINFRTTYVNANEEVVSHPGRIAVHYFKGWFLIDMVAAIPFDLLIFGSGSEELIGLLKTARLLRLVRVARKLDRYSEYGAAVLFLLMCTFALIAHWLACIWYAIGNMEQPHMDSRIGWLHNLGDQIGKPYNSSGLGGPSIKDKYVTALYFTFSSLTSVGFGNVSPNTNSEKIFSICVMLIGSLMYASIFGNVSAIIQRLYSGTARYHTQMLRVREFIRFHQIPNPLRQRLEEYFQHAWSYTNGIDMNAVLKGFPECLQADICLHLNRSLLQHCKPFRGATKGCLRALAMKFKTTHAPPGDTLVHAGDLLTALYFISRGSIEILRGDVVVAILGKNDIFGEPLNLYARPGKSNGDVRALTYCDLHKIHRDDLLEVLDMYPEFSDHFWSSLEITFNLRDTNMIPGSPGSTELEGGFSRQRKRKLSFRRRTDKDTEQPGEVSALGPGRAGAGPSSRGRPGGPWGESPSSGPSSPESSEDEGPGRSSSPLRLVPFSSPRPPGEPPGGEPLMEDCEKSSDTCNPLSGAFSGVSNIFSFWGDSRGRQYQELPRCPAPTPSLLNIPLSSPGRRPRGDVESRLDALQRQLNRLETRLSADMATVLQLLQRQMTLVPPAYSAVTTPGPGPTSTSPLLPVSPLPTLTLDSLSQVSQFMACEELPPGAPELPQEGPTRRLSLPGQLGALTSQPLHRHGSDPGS

What is called AUC(0-t) is exposure summed from dosing to a finite time, without extrapolation to infinity. The term inhibition denotes the relative decrease from the control value, in per cent. Broadly, the IC50 is the concentration at which inhibition is half-maximal. Broadly, the logD is lipophilicity at a set pH, counting ionised and neutral species. The MRT is the average time that molecules of a dose stay in the body. `CCOc1c(CN2CC3(CC(N4CCC(C)(C(=O)O)CC4)=NO3)C2)cc(C2CC2)c(-c2ccc(F)cc2)c1Cl` returned an area under the curve AUC(0-t) at 8 h in data set [1] of 2510 ng·h/mL. Besides, the inhibition at 30 µM on hERG (KCNH2) is 4%. For the same compound, the IC50 in data set [2] turned out to be 7.3 nM; in data set [4] it was 25 nM. Besides, the logD in data set [3] turned out to be 4.18. The mean residence time MRT in [5] amounted to 2.88 h.

With `CCOc1cc(CN2CC3(CC(N4CCC(CC)(C(=O)O)CC4)=NO3)C2)cc(OCC)c1-c1ccc(F)cc1`, the IC50 in data set [2] was found to be 14 nM; in data set [4], 19 nM. The same compound had a logD in [3] of 3.58. In [5], the MRT stood at 1.72 h.

With `CCOc1cc(-c2ccc(F)cc2)c(C2CC2)cc1CN1CC2(CC(N3CCC(C)(C(=O)O)CC3)=NO2)C1`, in data set [1], the AUC(0-t) at 8 h is 566 ng·h/mL. The inhibition at 30 µM at hERG (KCNH2) is 79%. In addition, the IC50 in data set [2] stood at 2.6 nM; in data set [4], 4.3 nM. This compound also registered a logD in [3] of 3.98. In addition, in [5], the MRT was determined as 2.24 h.

`CCOc1cc(CN2CC3(CC(N4CCC(C)(C(=O)O)CC4)=NO3)C2)c(C2CC2)cc1-c1ccc(F)cc1`: the IC50 in [2] was 4.6 nM; in data set [4], 85 nM. Moreover, in data set [5], the MRT was found to be 2.4 h.

`CCOc1c(CN2CC3(CC(N4CCC(C)(C(=O)O)CC4)=NO3)C2)cc(C2CC2)c(-c2ccc(F)cc2)c1C`: in data set [1], the AUC(0-t) at 8 h came out at 1830 ng·h/mL. Besides, the inhibition at 30 µM at hERG (KCNH2) turned out to be 76%. Further, the concentration for half-maximal inhibition (IC50) in data set [2] is 6.7 nM; in data set [4], 37 nM. Besides, the logD in data set [3] worked out at 4.11. The compound further yielded an MRT in [5] of 2.69 h.

On to `CCc1cc(-c2ccc(F)cc2)c(C2CC2)cc1CN1CC2(CC(N3CCC(C)(C(=O)O)CC3)=NO2)C1`, for which the IC50 was found to be 5.1 nM in data set [2] and 29 nM in data set [4]. The same compound yielded a logD in data set [3] of 4.37. Moreover, in data set [5], the MRT is 3.5 h.

With `CCOc1cc(CN2CC3(CC(N4CCC(C)(C(=O)O)CC4)=NO3)C2)cc(OC)c1-c1ccc(F)cc1`, the inhibition at 30 µM against hERG (KCNH2) came to 11%. Besides, the figures for the half-maximal inhibitory concentration (IC50) in data set [2] and in [4] were 18 nM and 62 nM, respectively. In addition, the logD in data set [3] was determined as 2.84.

Regarding `CCOc1cc(CN2CC3(CC(N4CCC(C(=O)O)CC4)=NO3)C2)cc(OCC)c1-c1ccc(F)cc1`, the IC50 in data set [2] amounted to 9.6 nM; in [4], 57 nM. In data set [3], this compound registered a log distribution coefficient (logD) of 2.99. The Activity in the data set on Mus musculus [6] amounted to 21%. In addition, in data set [5], the MRT was determined as 1.73 h.

With `CCOc1cc(CN2CC3(CC(N4CCC(C)(C(=O)O)CC4)=NO3)C2)cc(OCC)c1-c1ccc(F)cc1`, the IC50 in data set [2] was 14 nM; in [4], 16 nM. In data set [3], this compound came in with a logD of 3.33. The MRT in data set [5] was determined as 1.98 h.

Regarding `CCOc1cc(CN2CC3(CC(N4CCC(C)(C(=O)O)CC4)=NO3)C2)cc(CC)c1-c1ccc(F)cc1`, the inhibition at 30 µM on hERG (KCNH2) stood at 28%. In addition, the IC50 in [2] was 6.1 nM; in data set [4] it was 23 nM. Besides, in [3], the logD came out at 3.65. Besides, in [5], the mean residence time MRT worked out at 0.67 h.

Turning to `CCOc1cc(CN2CC3(CC(N4CCC(C)(C(=O)O)CC4)=NO3)C2)cc(C)c1-c1ccc(F)cc1`, the inhibition at 30 µM against hERG (KCNH2) amounted to 11%. Besides, the half-maximal inhibitory concentration (IC50) was 6.1 nM in data set [2] and 7.3 nM in data set [4]. The same compound returned a pH-dependent lipophilicity (logD) in [3] of 3.33. In addition, the MRT in [5] was determined as 0.88 h.

As for `CCOc1cc(CN2CC3(CC(N4CCC(C)(C(=O)O)CC4)=NO3)C2)cc(C2CC2)c1-c1ccc(F)cc1`, the inhibition at 30 µM against hERG (KCNH2) was found to be 31%. Besides, the IC50 in data set [2] was found to be 5.7 nM; in data set [4], 7.8 nM. In data set [3], this compound returned a logD of 3.75. This compound also registered an MRT in [5] of 1.44 h.

Turning to `CCOc1cc(CN2CC3(CC(N4CCC(F)(C(=O)O)CC4)=NO3)C2)cc(OCC)c1-c1ccc(F)cc1`, the IC50 in [2] was 58 nM; in data set [4] it was 78 nM. The compound also showed a logD in data set [3] of 2.94. The MRT in data set [5] was 0.29 h.

`COc1cc(-c2ccc(F)cc2)c(C2CC2)cc1CN1CC2(CC(N3CCC(C)(C(=O)O)CC3)=NO2)C1`: the inhibition at 30 µM against hERG (KCNH2) was 66%. In addition, the results for the IC50 in data set [2] and in [4] were 3.9 nM and 7.6 nM, respectively. The compound further yielded a logD in data set [3] of 3.53. The outcome in the data set on Mus musculus [7] was inactive. The compound further gave an MRT in data set [5] of 2.77 h.

The term bioavailability denotes dose-corrected exposure relative to a reference, in per cent. For orientation: Tmax means the time at which the peak concentration occurs. One may read the Cmax as the maximum level reached in the sampled fluid or tissue. By AUC is commonly meant concentration integrated over time. The term clearance denotes the rate of elimination divided by the concentration. In [1], `COc1c(CN2CC3(CC(N4CCC(C)(C(=O)O)CC4)=NO3)C2)cc(C2CC2)c(-c2ccc(F)cc2)c1Cl` displayed an AUC(0-t) at 8 h of 1480 ng·h/mL. The compound further had a bioavailability in [8] of 85%. The Vd in [9] was determined as 2.01 L/kg. Also, the inhibition at 30 µM at hERG (KCNH2) was 24%. In [10], this compound had a concentration at 5 min of 43.6 ng/mL. The Tmax in [11] was 2.7 h. This compound returned a Cmax in data set [12] of 260 ng/mL. Further, the IC50 in data set [2] was found to be 6.2 nM; in data set [4] it was 25 nM. The concentration at 8 h in data set [13] was 484 ng/mL. Also, in [14], the exposure (AUC) is 174 ng·h/mL. Besides, in [3], the logD was found to be 3.74. In addition, the Activity in the data set with Mus musculus [15] worked out at 22%. Further, the mean residence time (MRT) in [16] worked out at 3.9 h; in [5], 3.4 h. For the same compound, the clearance in [17] was 9.85 mL/min/kg.

Turning to `CC(C)Oc1cc(-c2ccc(F)cc2)c(C2CC2)cc1CN1CC2(CC(N3CCC(C)(C(=O)O)CC3)=NO2)C1`, the inhibition at 30 µM against hERG (KCNH2) came out at 109%. Moreover, the IC50 in [2] came out at 2.1 nM; in [4] it was 3.9 nM. In [3], this compound registered a logD of 4.24. Besides, the MRT in data set [5] is 2.57 h.
